Experimental findings from paper PMC3422351, “Lipo-Endomorphin-1 Derivatives with Systemic Activity against Neuropathic Pain without Producing Constipation” (PLoS ONE, 2012) are described below.

For orientation: Papp A→B means how fast a substance crosses the layer from the apical side. Higher therefore signals ready permeation. As usually defined, the IC50 is the concentration that inhibits the measured activity by half. Low values mean inhibition by little substance, high ones a need for much substance.

Series [1] can be described thus: Caco-2 cell permeability assay. Type of series: in vitro ADME, human. The conditions noted are these: human, Caco-2, pH 7.4, across Caco-2 cell monolayers, mean ± SEM. On the procedure: (§1) A suspension of 10^5 Caco-2 cells (100 µL) in culture medium supplemented with 1% penicillin/streptomycin (100 U/mL) was pipetted into polycarbonate cell culture inserts (pore size 0.4 µm, 6.5 mm diameter, Transwell®) in a 24-well plate, and the same medium was also added to the basolateral chamber (0.6 mL). Medium in both chambers was changed every second day.
(§2) After 21–28 days, the integrity of the tight junctions and the monolayers was assessed by measuring the transepithelial electrical resistance (TEER) using the Millicell-ERS epithelial volt-ohmmeter system (Millipore Corporation). Wells that gave TEER values of 1500–4280 (Ωcm^2) were used for the experiment.
(§3) After the initial TEER test, the Caco-2 cell monolayers were washed with HBSS-Hepes buffer (3×) and then incubated with the same buffer at 37°C. After 30 minutes the buffer was removed from the apical chamber and 100 µL aliquots of peptides, dissolved to a concentration of 200 µM in HBSS-Hepes containing 1% DMSO, were added to at least three wells. As a further test of the Caco-2 cell monolayer integrity, radiolabelled [^14C]-D-mannitol (1.80 µCi) in HBSS-Hepes buffer was added to three wells. The plates were incubated in a shaker set to 400 rpm at 37°C, and samples (0.4 mL) were collected from the basolateral chamber at 30, 90, 120 and 150 minutes and replaced with the same volume of buffer. At the end of the experiment, 50 µL were collected from the apical chamber of each well. LC-MS quantification of the peptides was performed as described in Caco-2 cell homogenate stability assay. The radioactivity of the [^14C]-D-mannitol samples was quantified by liquid scintillation counting (Liquid Scintillation Systems, BECKMAN LS3801, USA), and the apparent permeability (P app) for each compound was calculated using the following equation: [drawing 1] dC/dt steady-state rate of change in the chemical concentration (M/s) or radiochemical concentration (dpm mL/s) in the receiver chamber
(§4) Vr volume of the receiver chamber (mL)
(§5) A surface area of the cell monolayers
(§6) C0 initial concentration in the donor chamber (M or dpm/mL)

Another series concerns Caco-2 cell monolayers. Put plainly: Caco-2 cell permeability assay. It counts as in vitro ADME, human. The conditions noted are these: for increase in permeability (P app) compared to peptide 1: Caco-2 cell monolayers, vs 1 in the same experiment; for P app (×10^−7, cm/s): across Caco-2 cell monolayers, mean ± SEM. As to the method:
as §1, §2, §3, §4, §5, §6
(In general: Caco-2 cells form a polarised layer with tight junctions and transporters.)

Series [2] deals with gastrointestinal transit of a charcoal meal in rats. Briefly: Charcoal test (gastrointestinal transit). It counts as in vivo, rat. As to the method: (§7) • Castor oil-induced diarrhea test in rats The ability of test items to inhibit castor-oil induced diarrhea as an index of constipation was assessed. Prior to the start of experimentation, drug-naive rats weighing 200–250 g were fasted for 16 h with free access to water. Individually caged rats were acclimatized for 1 h without access to food or water prior to drug or vehicle administration. […] Rats were gavaged with 1 mL of castor oil five minutes after test item or vehicle administration. Presence or absence of diarrhea was recorded every hour according to a scoring system based on the weight of feces boli and the feces consistency. Weight was scored from 0 (no feces) to 3 (>3 g of feces) and consistency was scored from 0 (normal-shape feces) to 3 (shapeless feces with large amounts of liquid). When both weight of feces and the feces consistency were scored at ≥2, diarrhea was considered to be present. • Charcoal test The charcoal test was assessed in groups of drug-naive rats to measure gastrointestinal (GI) transit. […] The total length of the small intestine from the pylorus to the ileocaecal junction as well as the most distal point of migration of the charcoal meal was measured. The percentage of the distance which the charcoal meal travelled relative to the total length of the small intestine (GI propulsion) was calculated.

Series [3] has as its system castor oil-induced diarrhea in rats. Put plainly: Castor oil-induced diarrhea test in rats. It counts as in vivo, rat. On the procedure: as §7
Series [4] in a line: Caco-2 cell homogenate stability assay. It counts as in vitro ADME, human. The conditions noted are these: for half-life: human, Caco-2, pH 7.4, Caco-2 cell homogenate, mean ± SEM, read-out: t 1/2 (min, Caco-2). As to the method: A suspension of 5×10^4 Caco-2 cells in 100 µL culture medium was added to the wells of a 96-well cell culture plate. Culture medium supplemented with 1% penicillin/streptomycin (100 U/mL) was changed every second day.
After 21–28 days, the cells were washed with 0.2% EDTA (2×100 µL) and Hank's Balanced Salt Solution containing 25 mM 4-(2-hydroxyethyl)-1-piperazineethanesulfonic acid (HBSS-Hepes, pH 7.4; 3×100 µL). HBSS–Hepes buffer was added to each well (100 µL), and the cells were disrupted by two one-second pulses with a Sonics Vibracell ultrasonic processor set at 60% amplitude at 130 W. The cell debris was removed by centrifugation (2000 rpm, 5 minutes) and the protein content of three wells was determined using the Bio-Rad protein assay kit, by comparison with a standard curve generated from known concentrations of bovine serum albumin. The protein content of the cell homogenate was adjusted to 0.6–0.9 mg/mL in a clean 96-well plate.
The peptides were dissolved in HBSS–Hepes buffer containing 1% DMSO (dimethyl sulfoxide), and each peptide solution (200 µM, 100 µL) was added to three wells and the plate was incubated at 37°C in a shaker at 400 rpm. At pre-selected time points (5, 10, 15, 20, 30, 40, 50, 60, and 120 min), samples (10 µL) were collected and enzymatic digestion was stopped by addition of 5 µL TFA. These samples were then diluted with water (75.5 µl) and DMSO (9.5 µL) and analyzed by LC-MS to determine the concentration of peptide remaining in the solution.
LC-MS was carried out on a Luna Phenomenex C18 column (2.0×50 mm, 5 µm) with a gradient of 100% A (0.1% formic acid in water) to 100% B (0.1% formic acid in acetonitrile/water 9∶1) over 5.5 minutes at a flow rate of 0.3 mL/min. The mass spectrometer was set to selective ion monitoring in the positive ion electrospray mode. A standard curve was generated from standards containing known peptide concentrations, and used to determine the peptide concentration in the samples.

In series [5] the target is T1, MOP receptor (Homo sapiens, UniProt P35372).
T1 construct: SH-SY5Y cells, which endogenously expresses MOP and δ-opioid (DOP) receptors; host or cells: SH-SY5Y human neuroblastoma cells
T1 sequence (P35372 whole entry): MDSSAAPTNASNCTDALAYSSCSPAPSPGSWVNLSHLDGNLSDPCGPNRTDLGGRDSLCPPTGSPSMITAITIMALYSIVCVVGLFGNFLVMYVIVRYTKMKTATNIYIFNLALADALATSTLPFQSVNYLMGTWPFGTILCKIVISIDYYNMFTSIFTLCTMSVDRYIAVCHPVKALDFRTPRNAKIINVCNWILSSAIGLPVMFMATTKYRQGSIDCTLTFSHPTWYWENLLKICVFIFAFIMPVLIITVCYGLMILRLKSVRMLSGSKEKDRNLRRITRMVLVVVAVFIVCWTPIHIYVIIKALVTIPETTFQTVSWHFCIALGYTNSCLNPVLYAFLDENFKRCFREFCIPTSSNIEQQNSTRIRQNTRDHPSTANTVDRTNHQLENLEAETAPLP
Briefly: SH-SY5Y receptor binding assay ([3H]DAMGO displacement from whole cells). To be noted: DPDPE 1 µM, read-out: K iμ. On the procedure:
A suspension of SH-SY5Ycells (10^5 cells per well) was seeded into 24-well plates and incubated overnight. The cells were washed with PBS and pre-incubated with 300 µL binding buffer (50 mM Tris buffer, pH 7.4, 2% BSA). A mixture of [^3H]-DAMGO (100 µL, 15 nM), DPDPE (100 µL, 1 µM) and 100 µL aliquots of each peptide in a range of concentrations (0.1 nM to 100 µM) was added to each well and the plate was incubated at 37°C. An excess of [^3H]-DAMGO (1 µM) was used to determine non-specific binding and buffer (100 µL) was measured as the blank. After 60 minutes, the cells were washed with PBS and 1 M NaOH (0.5 mL) was used to lyse the cells. The radioactivity of the cell suspension was measured by scintillation counting (Liquid Scintillation Systems, BECKMAN LS3801, USA). Data analysis was performed using the one-site competition binding model (GraphPad Prism™ (v5.0) software).

Series [6] addresses T1, MOP receptor. Briefly: Inhibition of forskolin-stimulated cAMP formation in SH-SY5Y cells. Type of series: cell-based. On the procedure: SH-SY5Y cells, which express MOP and DOP receptors, were seeded (10^5 cells/mL, 100 µL) in a 96-well plate and incubated overnight to reach 80% confluence. Culture medium supplemented with 30 µM forskolin was used make peptide solution (100 nM) and aliquots (100 µL) of each peptide were added to three wells. After incubation at 37°C for 30 minutes, the culture medium was removed and lysis buffer from a cAMP Biotrak EIA kit (Amersham, Buckinghamshire, UK) was added, followed by an anti-cAMP antibody. After incubation at 4°C for 2 hours, a cAMP peroxidase conjugate was added and the plate incubated for another hour at 4°C. Then, the cell lysate was incubated with a 3,3′5,5′-tetramethylbenzidine (TMB) substrate provided by the Biotrak EIA kit and finally […] sulfuric acid was added. Absorbance of each well was determined using a plate reader at 450 nm and compared with a cAMP standard curve (concentration 0–3.2 pmol). Data was represented as a percentage of the maximum cAMP response to forskolin, shown as a mean (±SEM) of three separate experiments each performed in triplicate (GraphPad Prism™ (v5.0) software).
In general terms: cAMP levels reflect the balance of adenylyl cyclase and phosphodiesterase activity.

Series [7] has as its system CCI-rat model of neuropathic pain. Briefly: Antinociception in CCI-rat model of neuropathic pain (Von Frey paw withdrawal thresholds). It counts as in vivo. The conditions noted are these: morphine i.v. at equi-effective dose, CCI-rats, p<0.001 vs vehicle.
Description: Chronic constriction injury (CCI) of the sciatic nerve in the rat was used as a model of neuropathic pain and was induced according to the method of Bennett and Xie [21]. Briefly, rats were anesthetized with 3% isoflurane delivered in oxygen. A 7 mm segment of the left common sciatic nerve was exposed at mid-thigh level, proximal to the sciatic trifurcation. […] The surgical incision was closed by suturing the muscles and skin in layers. To prevent infection, topical antibiotic powder was applied to the wound. The day of CCI surgery was regarded as day 0. Rats were inspected daily considering posture of the affected hindpaw, exploring behavior, body weight, water intake, and signs of autotomy until experimentation day, which was 14 days post-surgery.
Paw withdrawal thresholds (PWT's), expressed in grams, were measured using a set of calibrated Von Frey filaments (Touch Test- North Coast, 800-821-9319). Animals were acclimatized for at least 15 min in wire mesh metabolic cages (20×20×17 cm). Von Frey filaments which delivered forces in the range 2–20 g at 2 g intervals were used according to the up-down method [20]. Filaments were applied to the plantar surface of the footpad of the hindpaw so that the filament bent slightly for 3 seconds. […]
A further series in a line: Plasma stability assay. Type of series: in vitro ADME. The conditions noted are these: human plasma, 37°C, mean ± SEM; read-out: t 1/2 (min, Plasma). On the procedure: Fresh human plasma was obtained from healthy and consenting volunteers (ethics approval number: 2006000950). The peptides were dissolved in PBS containing 5% DMSO (1 mg/mL), and 300 µL aliquots were mixed with 300 µL of pre-warmed plasma and incubated at 37°C. At selected time points (5, 10, 20, 30, 40, 60, 90, and 120 min), samples (50 µL) were collected and plasma proteins precipitated by addition of acetonitrile (75 µL). After centrifugation (10,000 rpm, 10 minutes), the peptide content of the supernatant was analyzed by HPLC with a Vydac C18 column (4.6×250 mm, 5 µm) at a flow rate of 1 mL/min and a gradient of 100% A (0.1% TFA in water) to 100% B (0.1% TFA in acetonitrile/water 9∶1) over 30 minutes.

Where [8] appears, read: separate experiment [d] with 1 and 3 tested together.

Read-outs that look alike come from different tables or passages of the source. Square brackets hold non-standard residues; d marks the D form. Peptide text beside a SMILES is read from it. ξ: configuration not given here. Dmt = Cc1cc(O)cc(C)c1C[C@H](N)C(=O)O; ξGly(octyl) = CCCCCCCCC(N)C(=O)O

In [1] (setting [8]), `CCCCCCCCC(N)C(=O)N[C@@H](Cc1ccc(O)cc1)C(=O)N1CCC[C@H]1C(=O)N[C@@H](Cc1c[nH]c2ccccc12)C(=O)N[C@@H](Cc1ccccc1)C(N)=O` (stereo partly shown) [Compound 3] (H-[ξGly(octyl)]YPWF-NH2) came in with a Papp A→B at 150 min, 200 µM of 90.1 ± 12.2 nm/s. Besides, the “increase in permeability (P app) compared to peptide 1” value in the series on Caco-2 cell monolayers is around 90 fold. Moreover, the “P app (×10^−7, cm/s)” value in the series on Caco-2 cell monolayers (setting [8]) is 90.1 (±12.2) ×10^−7 cm/s. The “GI propulsion (%)” value in series [2] (i.v. 16 µmol/kg, mean (± SEM)) is on record as 64.3 (±3.0) %. Moreover, the “inhibition of castor oil-induced diarrhea” value in series [3] (i.v. doses up to 16 µmol/kg, p>0.05) is “No significant inhibition”. Moreover, in [4] (setting [8]), the half-life is 77.4 ± 7.1 min. Also, the Ki on MOP receptor [5] (separate experiment [d] with 1 and 3, mean ± SEM) worked out at 25.7 ± 1.3 nM. Also, half-maximal inhibition against MOP receptor [6] (IC50) was put at 31.4 ± 1.45 nM.
For `CN1CC[C@]23c4c5ccc(O)c4O[C@H]2[C@@H](O)C=C[C@H]3[C@H]1C5` [morphine, reference compound], the “GI propulsion (%)” value in series [2] (i.v. 2 µmol/kg, mean ± SEM, p<0.001) came to 29.5±4.6%. Also, the “inhibition of castor oil-induced diarrhea” value in series [3] (i.v. 2 µmol/kg, p<0.001) is given as “inhibited castor oil-induced diarrhea significantly”. In addition, in series [7], the “antinociception in the contralateral (uninjured) hindpaw” value was “produced significant antinociceptive activity”.
In [1] (LC/MS), `Cc1cc(O)cc(C)c1C[C@H](N)C(=O)N1CCC[C@H]1C(=O)N[C@@H](Cc1c[nH]c2ccccc12)C(=O)N[C@@H](Cc1ccccc1)C(N)=O` [Compound 2] registered a Papp A→B at 150 min, 200 µM of 2.5 ± 0.3 nm/s. Besides, in the series with Caco-2 cell monolayers (LC/MS), the “P app (×10^−7, cm/s)” value was 2.5 (±0.3) ×10^−7 cm/s. Also, the results for the half-life (in series [4] (37°C); in “Plasma stability assay”) were 24.1 ± 3.6 min and 4.2 ± 1.5 min, respectively. Also, the Ki at MOP receptor [5] (mean ± SEM) amounted to 0.06 ± 0.01 nM. In addition, half-maximal inhibition against MOP receptor [6] (IC50) was put at 0.3 ± 0.02 nM.
With `NC(=O)[C@H](Cc1ccccc1)NC(=O)[C@H](Cc1c[nH]c2ccccc12)NC(=O)[C@@H]1CCCN1C(=O)[C@@H](N)Cc1ccc(O)cc1` [Compound 1, Tyr-Pro-Trp-Phe-NH2, reference compound], the values for the Papp A→B at 150 min, 200 µM in series [1] (LC/MS) and in series [1] (setting [8]) were 0.2 ± 0.02 nm/s and 1 ± 0.34 nm/s, respectively. In the series on Caco-2 cell monolayers (LC/MS), the “P app (×10^−7, cm/s)” value is given as 0.2 (±0.02) ×10^−7 cm/s.
`CCCCCCCCC(N)C(=O)N[C@@H](Cc1c(C)cc(O)cc1C)C(=O)N1CCC[C@H]1C(=O)N[C@@H](Cc1c[nH]c2ccccc12)C(=O)N[C@@H](Cc1ccccc1)C(N)=O` (stereo partly shown) [Compound 4] (H-[ξGly(octyl)][Dmt]PWF-NH2) yielded a Papp A→B at 150 min, 200 µM in series [1] (LC/MS) of 12.4 ± 4.7 nm/s. Also, the “increase in permeability (P app) compared to peptide 1” value in the series on Caco-2 cell monolayers was determined as 62 fold. In the series on Caco-2 cell monolayers (LC/MS), the “P app (×10^−7, cm/s)” value is reported as 12.4 (±4.7) ×10^−7 cm/s. Moreover, the half-life in series [4] (37°C) was 96.3 ± 8.3 min; in “Plasma stability assay”, 41.4 ± 3.3 min. Further, the “increase in Caco-2 cell homogenate stability compared with parent peptide 1” value in series [4] (vs peptide 1 tested in the same experiment) was 34 fold. At MOP receptor [5] (mean ± SEM), the Ki is 0.5 nM. This molecule also returned an IC50 on MOP receptor [6] of 1.3 ± 0.22 nM.
